Experimental data reported in EPA's ToxValDB 9.5 (doi:10.2903/j.efsa.2008.140r).
Values after ≈ are worked out from the molar mass of the structure shown.

Columns and labels:
[1] = system: Daphnia magna; details: chronic/long-term; duration: 21 days; reproduction
[2] = system: Rattus norvegicus; details: for NOAEL: chronic
[3] = system: Typhlodromus pyri; details: not reported; other
[4] = system: Canidae; details: chronic; duration: 1 years; oral; Dog Other; clinical signs
[5] = system: Tagia sp.
[6] = system: Colinus virginianus; details: acute; oral; mortality
[7] = system: Oncorhynchus mykiss

SMILES: CCN(CC)C(=O)C(C)Oc1cccc2ccccc12 (stereo unspecified) [Napropamide]
- NOEC [1]: 4.3 mg/L
- LD50 ([2]; acute, mortality): 4680 mg/kg-day
- NOAEL ([2]; duration: 2 years, oral, body weight): 30 mg/kg-day
- NOAEL ([2]; mortality): 30 mg/kg-day
- LEL [3]: 4500 g/ha
- NOAEL [4]: 50 mg/kg-day
- LC50 ([5]; acute, duration: 14 days, mortality): 564 mg/kg
- NOEC ([5]; chronic/long-term, reproduction): 60 mg/kg
- LD50 [6]: > 2250 mg/kg-day
- LC50 ([7]; acute, duration: 96 hours, mortality): 6.6 mg/L (≈ 24.3 µM)
- NOEC ([7]; chronic/long-term, duration: 28 days, growth): 1.1 mg/L
